Patent publication US9890176B2, “Mannose derivatives for treating bacterial infections” (Vertex Pharmaceuticals Incorporated, priority 2013, dated 2018)

System: bacterial strain LF82 binding to the glycoprotein BSA-(Mannose)3
Assay: Bacterial Binding Assay (BBA)
Format: cell-based, Escherichia coli
Details: read-out: Bacterial Binding Assay IC50
Text: The purpose of the Bacterial Binding Assay (BBA) is to determine the inhibition activity of selective FimH antagonists on the bacterial strain LF82 binding to the glycoprotein BSA-(Mannose)3.
Below is a list of the Materials used to run the BBA are described below. • 1. LB broth: Supplier: Gibco, #10855 • 2. D-PBS: Supplier: Wisent, #311-425-CL • 3. LB agar plates • 4. 96-well black plate (high binding): Supplier: Costar, #3925 • 5. TopSeal™-A adhesive sealing films; Supplier PerkinElmer, #6005185 • 6. Carbonate-bicarbonate buffer pH 9.6 tablets, Supplier: Medicago, #09-8922-24 • 7. Water, Supplier: Gibco, #15230-162 • 8. Bovine serum albumin (BSA): Supplier: Sigma, #A-7888 • 9. (Man)-3-BSA (α1-3, α1-6 Mannotriose-BSA, 1 mg), V-Labs, #NGP1336, lot#HGDX37-169-1 • 10. Tween 20: Supplier: Sigma, #P9416 • 11. Bright-Glo Luciferase Assay System: Supplier: Promega, #E2610 • 12. LF82/Luciferase strain: Invasive ability of an Escherichia coli strain isolated from the ileal mucosa of a patient with Crohn's disease. Boudeau J, Glasser A L, Masseret E, Joly B, Darfeuille-Michaud A, Infect Immun. 1999, 67(9), 4499-509
Solutions and buffers used to run the BBA are described below. • 1. 0.04M carbonate-bicarbonate buffer (coating buffer) • 2. […] 1 mg of (Man)-3-BSA in 25 mL of water. • 3. 4000 ng/mL BSA • 4. 40 ng/mL BSA • 5. 1 μg/mL BSA-(Man)3: 150 μL of 40 ng/mL BSA-(Man)3+5.85 mL of 40 ng/mL BSA • 6. 0.5 μg/mL BSA-(Man)3 in 0.02M carbonate-bicarbonate buffer. • 7. 20 ng/mL BSA in 0.02M carbonate-bicarbonate buffer • 8. Blocking buffer (2% BSA/DPBS): 1 g of BSA in 50 mL D-PBS • 9. 2× binding buffer (0.2% BSA/D-PBS): 5 mL of blocking buffer+45 mL D-PBS. • 10. Washing buffer (D-PBS/0.01% Tween 20): 10 μL of Tween 20 in 100 mL D-PBS. • 11. 1× Bright-Glo Luciferase substrate:Dilute 1:1 the Bright-Glo Luciferase Assay System with D-PBS The experimental protocol to run the BBA is described below.
Overnight culture of LF82/Luciferase strain: Into two Falcon 50 mL tubes, add 20 mL of LB+20 μL of 50 mg/mL Kanamycin and inoculate with a loop from glycerol stock of the LF82/Luciferase strain. Incubate overnight at 37° C. with no shaking.
Glycoprotein coating of 96-well plates: Add 100 μL/well of 0.5-2 μg/mL BSA-(Man)3. 20 μg/mL BSA is used as the control background. Seal plate using an adhesive sealing film and incubate overnight at room temperature. Wash the 96-well plate three times with 150 μL/well of D-PBS, add 170 μL/well of blocking solution and incubate 45 min (minimum) at room temperature.
Preparation of bacterial suspension: Mix the two cultures tubes (40 mL) and perform a 1:10 dilution in LB (900 μl LB+100 μl culture. Measure optical density (OD) of the bacterial cultures. OD1 ˜5×10^8 cells/mL. Centrifuge LF82 culture for 20 min at 3500 rpm at room temperature. Re-suspend bacterial pellet in D-PBS and centrifuge again for 20 min at 3500 rpm. Re-suspend bacterial pellet in D-PBS to obtain a bacterial concentration of 2×10^9 bacteria/mL. Dilute 1/10 in D-PBS to obtain a final bacterial concentration of 2×10^8 bacteria/mL (=107 bacteria/50 μL). Perform 1/10 serial dilutions in LB of each bacterial suspension, plate 10 μL of dilutions on LB agar plates (final dilutions of 10^−7) and incubate overnight at 37° C. and count CFUs to determine the actual bacteria density in the assay.
Bacterial binding assay: Add 147 μL 2× binding buffer to compound plate (containing 3 μL of compound). After blocking step is performed (at least 45 min), wash plates three times with 200 μL/well of D-PBS. With a 100 μL multichannel manual pipettor, add 50 μL/well of compound diluted in 2× binding buffer. With a 100 μL multichannel manual pipettor, add 50 μL/well of bacterial suspension. Agitate at slow speed for 1 min and incubate 40-75 min at room temperature. Wash 5 times with 150 μL/well of washing buffer and then once with D-PBS. Add 100 μL/well of 1× Bright-Glo Luciferase substrate. […]

Row | SMILES | IC50
1 | Cc1cc(-c2cccc(C(=O)NC[C@H]3OC(O)[C@H](O)[C@@H](O)[C@@H]3O)c2)ccc1O[C@H]1O[C@H](CO)[C@@H](O)[C@H](O)[C@]1(C)O (stereo partly shown) [Compound 64] | 20 ± 0.5 nM
2 | COc1c(F)cc(-c2ccc(O[C@H]3O[C@H](CO)[C@@H](O)[C@H](O)[C@]3(C)O)c(C)c2)cc1F [Compound 98] | 16 ± 7 nM
3 | C[C@@]1(O)[C@@H](Oc2ccc(-c3ccc(O[C@H]4O[C@H](CO)[C@@H](O)[C@H](O)[C@]4(C)O)c(F)c3)cc2F)O[C@H](CO)[C@@H](O)[C@@H]1O [Example 112, (2R,3S,4S,5S,6R)-2-[2-fluoro-4-[3-fluoro-4-[(2R,3S,4S,5S,6R)-3,4,5-trihydroxy-6-(hydroxymethyl)-3-methyl-tetrahydropyran-2-yl]oxy-phenyl]phenoxy]-6-(hydroxymethyl)-3-methyl-tetrahydropyran-3,4,5-triol] | 68 ± 11 nM
4 | Cc1cc(-c2cccc(C(=O)N(CCO)C(CO)(CO)CO)c2)ccc1O[C@H]1O[C@H](CO)[C@@H](O)[C@H](O)[C@]1(C)O [Compound 71] | 8 ± 2 nM
5 | CNC(=O)c1cccc(-c2ccc(O[C@H]3O[C@H](CO)[C@@H](O)[C@H](O)[C@@]3(O)CNC(C)=O)c(C)c2)c1 [Compound 52] | 48 ± 10 nM
6 | Cc1cc(-c2cccc(C(=O)NCCN(C)C)c2)ccc1O[C@H]1O[C@H](CO)[C@@H](O)[C@H](O)[C@]1(C)O [Compound 67] | 15 ± 6 nM
7 | CNC(=O)c1cccc(-c2ccc(O[C@H]3O[C@H](CO)[C@@H](O)[C@H](O)[C@]3(C)O)c(OC)c2)c1 [Example 17, 3-[3-methoxy-4-[(2R,3S,4S,5S,6R)-3,4,5-trihydroxy-6-(hydroxymethyl)-3-methyl-tetrahydropyran-2-yl]oxy-phenyl]-N-methyl-benzamide] | 27 ± 8 nM
8 | OC[C@H]1O[C@@]2(CCc3cc(-c4cncc(-c5ccc6c(c5)CC[C@]5(O6)O[C@H](CO)[C@@H](O)[C@H](O)[C@@H]5O)c4)ccc3O2)[C@@H](O)[C@@H](O)[C@@H]1O [Example 129, (2R,3′S,4′S,5′S,6′R)-6′-(hydroxymethyl)-6-[5-[(2R,3′S,4′S,5′S,6′R)-3′,4′,5′-trihydroxy-6′-(hydroxymethyl)spiro[chromane-2,2′-tetrahydropyran]-6-yl]-3-pyridyl]spiro[chromane-2,2′-tetrahydropyran]-3′,4′,5′-triol] | 11 ± 6 nM
9 | Cc1cc(-c2ccc(F)c(C(=O)N3CCOCC3)c2)ccc1O[C@H]1O[C@H](CO)[C@@H](O)[C@H](O)[C@]1(C)O [Compound 102] | 24 ± 5 nM
10 | Cc1cc(-c2ccc(F)c(Cl)c2)ccc1O[C@H]1O[C@H](CO)[C@@H](O)[C@H](O)[C@]1(C)O [Compound 92] | 82 ± 15 nM
11 | Cc1cc(-c2ccnc(-c3ccc(O[C@H]4O[C@H](CO)[C@@H](O)[C@H](O)[C@]4(C)O)c(C)c3)c2)ccc1O[C@H]1O[C@H](CO)[C@@H](O)[C@H](O)[C@]1(C)O [Example 122, (2R,3S,4S,5S,6R)-6-(hydroxymethyl)-3-methyl-2-[2-methyl-4-[2-[3-methyl-4-[(2R,3S,4S,5S,6R)-3,4,5-trihydroxy-6-(hydroxymethyl)-3-methyl-tetrahydropyran-2-yl]oxy-phenyl]-4-pyridyl]phenoxy]tetrahydropyran-3,4,5-triol] | 0.6 ± 0.3 nM
12 | C[C@@]1(O)[C@@H](Oc2ccc3ccc(O[C@H]4O[C@H](CO)[C@@H](O)[C@H](O)[C@]4(C)O)cc3c2)O[C@H](CO)[C@@H](O)[C@@H]1O [Example 108, (2R,3S,4S,5S,6R)-6-(hydroxymethyl)-3-methyl-2-[[7-[(2R,3S,4S,5S,6R)-3,4,5-trihydroxy-6-(hydroxymethyl)-3-methyl-tetrahydropyran-2-yl]oxy-2-naphthyl]oxy]tetrahydropyran-3,4,5-triol] | 158 ± 61 nM
13 | CNC(=O)c1cccc(-c2ccc(O[C@H]3O[C@H](CO)[C@@H](O)[C@H](O)[C@@]3(O)COCc3ccccc3)c(C)c2)c1 [Compound 23] | 115 ± 25 nM
